From US10165776B2, “Substituted pyrazolylpyrazole derivative and use of same as herbicide” (KYOYU AGRI CO., LTD., priority 2015, dated 2019)

Columns and labels:
Type in all cases: in vivo
Echinochloa crus-galli = assay: Paddy herbicidal activity test; conditions: irrigated pot, treated at 3.5 leaf stage of Echinochloa crus-galli, 30 days at 30° C.
Experimental: (§1) Rice paddy soil was filled into a 1/10000 are pot followed by the addition of suitable amounts of water and chemical fertilizer, kneading, seeding with Echinochloa crus-galli, Monochoria vaginalis and Scirpus juncoides and maintaining in an irrigated state at a water depth of 3 cm. Wettable powders of Target Compound (I) shown in Table 1 prepared in compliance with the preparation examples were diluted with a suitable amount of water, rice plants in the 2.0 leaf stage were transplanted during 3.5 leaf stage of Echinochloa crus-galli, and treated by dropping in chemical in the prescribed amount per 10 are using a pipette. After treating for 30 days in a glass greenhouse at an average atmospheric temperature of 30° C., the herbicidal efficacy thereof was investigated. Evaluation of herbicidal efficacy was carried out by comparing growth inhibition rate (%) with an untreated group, while evaluation of phytotoxicity was carried out by comparing growth inhibition rate (%) with the state of a complete eradication group, and were evaluated at 11 levels indicated below.

Monochoria vaginalis = assay: Paddy herbicidal activity test; conditions: irrigated pot, treated at 3.5 leaf stage of Echinochloa crus-galli, 30 days at 30° C.
Experimental: as §1

Scirpus juncoides = assay: Paddy herbicidal activity test; conditions: irrigated pot, treated at 3.5 leaf stage of Echinochloa crus-galli, 30 days at 30° C.
Experimental: as §1

Oryza sativa = assay: Paddy herbicidal activity test, phytotoxicity to transplanted rice; conditions: rice transplanted at 2.0 leaf stage, 30 days at 30° C.
Experimental: as §1

Amaranthus retroflexus [1] = assay: Farming soil treatment test; conditions: soil surface spray prior to weed growth, 30 days at 30° C.
Experimental: (§2) Field soil was filled into a 1/6000 are pot followed by seeding with Digitaria ciliaris, Chenopodium album and Amaranthus retroflexus and covering with soil. Wettable powders of compounds of formula (I) shown in Table 1 prepared in compliance with the preparation examples were diluted with water to the prescribed amount of chemical and uniformly sprayed onto each soil surface layer using 100 liters of sprayed water per 10 are prior to weed growth following seeding. After treating for 30 days in a glass greenhouse at an average atmospheric temperature of 30° C., the herbicidal efficacy thereof was investigated. Evaluation of herbicidal efficacy was carried out in the same manner as the above-mentioned Test Example 1.

Chenopodium album [2] = assay: Farming soil treatment test; conditions: soil surface spray prior to weed growth, 30 days at 30° C.
Experimental: as §2

Digitaria ciliaris [3] = assay: Farming soil treatment test; conditions: soil surface spray prior to weed growth, 30 days at 30° C.
Experimental: as §2

Amaranthus retroflexus [4] = assay: Weed foliar treatment test (Test 3, 1.0 to 2.0 leaf stage); conditions: foliar spray at 1.0 to 2.0 leaf stage of Digitaria ciliaris, 3 weeks at 25° C.
Experimental: (§3) Soil was filled into a 1/6000 are pot followed by seeding with Digitaria ciliaris, Chenopodium album and Amaranthus retroflexus, covering with soil, and cultivating in a glass greenhouse at an average atmospheric temperature of 25° C. Wettable powders of Target Compound (I) shown in Table 1 prepared in compliance with the preparation examples were diluted with water to the prescribed amount of chemical and uniformly sprayed onto the weeds using 150 liters of sprayed water per 10 are when Digitaria ciliaris had grown to the 1.0 to 2.0 leaf stage. After treating for 3 weeks in a glass greenhouse at an average atmospheric temperature of 25° C., the herbicidal efficacy thereof was investigated. Evaluation of herbicidal efficacy was carried out in the same manner as the above-mentioned Test Example 1.

Chenopodium album [5] = assay: as above; conditions: foliar spray at 1.0 to 2.0 leaf stage of Digitaria ciliaris, 3 weeks at 25° C.
Experimental: as §3

Digitaria ciliaris [6] = assay: as above; conditions: foliar spray at 1.0 to 2.0 leaf stage of Digitaria ciliaris, 3 weeks at 25° C.
Experimental: as §3

Digitaria ciliaris [7] = assay: Weed foliar treatment test (Test 4, 4.0 to 5.0 leaf stage); conditions: 10 g a.i./10 a; foliar spray at 4.0 to 5.0 leaf stage of Digitaria ciliaris (plant height 10 cm to 15 cm); 20 days at 25° C.
Experimental: (§4) Field soil was filled into a 1/4500 are pot followed by seeding with Digitaria ciliaris and Galinsoga parviflora, covering with soil and cultivating in a glass greenhouse at an average atmospheric temperature of 25° C. Wettable powders of Target Compound (I) shown in Table 1 prepared in compliance with the preparation examples were diluted with water to the prescribed amount of chemical and uniformly sprayed onto the weeds using 100 liters of sprayed water per 10 are when Digitaria ciliaris had grown to the 4.0 to 5.0 leaf stage (plant height: 10 cm to 15 cm). After treating for 20 days in a glass greenhouse at an average atmospheric temperature of 25° C., the herbicidal efficacy thereof was investigated. Evaluation of herbicidal efficacy was carried out in the same manner as the above-mentioned Test Example 1.

Galinsoga parviflora = assay: as above; conditions: 10 g a.i./10 a; foliar spray at 4.0 to 5.0 leaf stage of Digitaria ciliaris (plant height 10 cm to 15 cm); 20 days at 25° C.
Experimental: as §4

## Cc1ccccc1CC(=O)Nc1c(C#N)cnn1-c1nn2c(c1Cl)CCCC2 [Compound 6]
Echinochloa crus-galli; 1 g a.i./10 a
  herbicidal efficacy, Echinochloa crus-galli: 10 (10: 100%)
Echinochloa crus-galli; 5 g a.i./10 a
  herbicidal efficacy, Echinochloa crus-galli: 10 (10: 100%)
Monochoria vaginalis; 1 g a.i./10 a
  herbicidal efficacy, Monochoria vaginalis: 10 (10: 100%)
Monochoria vaginalis; 5 g a.i./10 a
  herbicidal efficacy, Monochoria vaginalis: 10 (10: 100%)
Scirpus juncoides; 1 g a.i./10 a
  herbicidal efficacy, Scirpus juncoides: 10 (10: 100%)
Scirpus juncoides; 5 g a.i./10 a
  herbicidal efficacy, Scirpus juncoides: 10 (10: 100%)
Oryza sativa; 1 g a.i./10 a
  phytotoxicity, Oryza sativa: 1 (1: 10% to less than 20%)
Oryza sativa; 5 g a.i./10 a
  phytotoxicity, Oryza sativa: 1 (1: 10% to less than 20%)
Amaranthus retroflexus [1]; 5 g a.i./10 a
  herbicidal efficacy, Amaranthus retroflexus: 9 (9: 90% to less than 100%)
Amaranthus retroflexus [1]; 10 g a.i./10 a
  herbicidal efficacy, Amaranthus retroflexus: 9 (9: 90% to less than 100%)
Chenopodium album [2]; 5 g a.i./10 a
  herbicidal efficacy, Chenopodium album: 9 (9: 90% to less than 100%)
Chenopodium album [2]; 10 g a.i./10 a
  herbicidal efficacy, Chenopodium album: 10 (10: 100%)
Digitaria ciliaris [3]; 5 g a.i./10 a
  herbicidal efficacy, Digitaria ciliaris: 9 (9: 90% to less than 100%)
Digitaria ciliaris [3]; 10 g a.i./10 a
  herbicidal efficacy, Digitaria ciliaris: 9 (9: 90% to less than 100%)
Amaranthus retroflexus [4]; 5 g a.i./10 a
  herbicidal efficacy, Amaranthus retroflexus: 10 (10: 100%)
Amaranthus retroflexus [4]; 10 g a.i./10 a
  herbicidal efficacy, Amaranthus retroflexus: 10 (10: 100%)
Chenopodium album [5]; 5 g a.i./10 a
  herbicidal efficacy, Chenopodium album: 10 (10: 100%)
Chenopodium album [5]; 10 g a.i./10 a
  herbicidal efficacy, Chenopodium album: 10 (10: 100%)
Digitaria ciliaris [6]; 5 g a.i./10 a
  herbicidal efficacy, Digitaria ciliaris: 10 (10: 100%)
Digitaria ciliaris [6]; 10 g a.i./10 a
  herbicidal efficacy, Digitaria ciliaris: 10 (10: 100%)
Digitaria ciliaris [7]
  herbicidal efficacy, Digitaria ciliaris: 10 (10: 100%)
Galinsoga parviflora
  herbicidal efficacy, Galinsoga parviflora: 10 (10: 100%)
